Measured values: patent US20210260010A1, “COMPOSITIONS AND METHODS FOR THE REDUCTION OR TREATMENT OF INFLAMMATION” (AXCELLA HEALTH INC., priority 2018, published 2021)

Columns and labels:
MCP1/CCL2 = MCP1/CCL2 secretion by primary human hepatocytes exposed to free fatty acids and TNF-α (ELISA); type: cell-based; conditions: for MCP1 expression relative to Control- Donor 1, Mean: donor 1 hepatocytes; for MCP1 expression relative to Control- Donor 1, Mean / MCP1 expression relative to Control- Donor 2, Mean: FFA + TNF-α, baseline subtracted; for MCP1 expression relative to Control- Donor 2, Mean: donor 2 hepatocytes
Method: Hepatocyte lipotoxicity appears to be a central driver of hepatic cellular injury via oxidative stress and endoplasmic reticulum (ER) stress. The ability of amino acids to influence steatosis (lipid accumulation) and inflammation in hepatocytes was assessed using human primary hepatocytes (Lonza, TRL).
Primary hepatocytes lot nos. from two healthy human donors were seeded on day 0 at density of 6e04 cells in 96 well optical microplates (Thermofisher) in hepatocyte plating media (William's E medium (Gibco) supplemented with 10% heat-inactivated FBS (Atlanta Bio), 2 mM Glutamax (Gibco) and 0.2% Primocin (InVivoGen) and incubated for 6 hours at 37° C., 5% CO2. After 6 hours, cells were washed twice and incubated overnight at 37° C., 5% CO2 with Hepatocytes defined medium (Corning) supplemented with 2 mM Glutamax (Gibco) and 1× Penicillin/Streptomycin. On day 1, cells were washed twice and incubated for 24 h in the hepatocyte culture media in the same conditions described above.
On day 2, cells were washed twice with DPBS 1× (Gibco) and maintained in amino acid-free WEM (US Biologicals) containing a defined custom amino acid concentration based on the mean physiological concentrations in blood. The values are published in the Human Metabolome Database (Wishart D S, Tzur D, Knox C, et al., HMDB: the Human Metabolome Database. Nucleic Acids Res. January 2007; 35(Database issue):D521-6. 17202168; which is hereby incorporated by reference in its entirety). This custom media is supplemented with 11 mM Glucose, 0.272 mM Sodium Pyruvate, and a dose curve of defined amino acid compositions (i.e., vehicle, LIVRQ+N-acetylcysteine, LIVRQ, RQ+N-acetylcysteine, N-acetylcysteine alone, LIV, or individually with L-Leucine, L-Isoleucine, L-Valine, L-Arginine, L-Glutamine, and L-Cysteine) at various ranges of concentrations. Cells were maintained in this defined media for 24 hours at 37° C., 5% CO2.
After pre-treatment, cells were exposed to free fatty acids (FFA) at 250 uM with a ratio of 2:1 (Oleate:Palmitate) supplemented with TNF-α (Thermofisher) at 1 ng/ml or vehicle. Cells were incubated with the FFAs mixture and the different amino acids combinations for 24 hours at 37° C., 5% CO2. After 24 hours incubation, media was removed for cytokine analysis and replaced by fresh media containing the same stimulus conditions and amino acid concentrations. Cells were incubated for an additional 48 hours for a total of 72 hours of FFA and TNFα stimulation.
Human CCL2 (MCP-1) was measured by ELISA (Human […] DuoSet ELISA, R&D Systems) at ⅕ or 1/10 dilution in 1× Reagent Diluent (Reagent Ancillary Kit 2, R&D Systems). Data were normalized to the specific per well cell density determined by nuclei count stained by Hoechst 3342 (Life technologies) in the fluorescence microscopy described below.

CCL18 = experiment: IL-4 induced CCL18 secretion in primary human monocyte-derived macrophages (ELISA); type: cell-based; conditions: for Donor 1 CCL18 Measurements Mean / Donor 2 CCL18 Measurements Mean: relative to vehicle control; for CCL18 Measurements: Mean (fold change relative to vehicle control): Donor 3, IL-4 induced; for IL-4 induced CCL18 secretion (fold change relative to vehicle control): macrophages
Method: Lymphocytes were purified from unpurified buffy coats (Research Blood Components) using Lymphocyte Separation Medium (Corning). After centrifugation, the PBMC layer was extracted and rinsed several times using Dulbecco's phosphate-buffered saline (DPBS; Gibco). After straining PBMCs through a 70 uM cell strainer, cells were resuspended and counted using a Cellometer K2 automated cell counter.
CD14+ cells were selected using EasySep™ Human CD14 Positive Selection Kit II ([…] Technologies) according to manufacturer-supplied protocols. Following isolation CD14+ cells were seeded into 10 cm tissue culture plates and differentiated into macrophages using M-CSF (Peprotech).
On day 0, primary human PBMC derived macrophages were seeded in Dulbecco's Modified Eagle Medium (DMEM) (Gibco) supplemented with penicillin-streptomycin (Hyclone) and 10% heat inactivated fetal bovine serum (HI-FBS) (Atlanta Bio) into 96-well microplates (ThermoFisher) and incubated overnight at 37° C., 5% CO2. On day 1, cells were washed once with DPBS and then treated with: • a. Amino acid free DMEM (US Biologicals) containing a defined custom amino acid concentration based on the mean physiological concentrations in blood based on values published in the Human Metabolome Database (HMDB), with 6 mM glucose, 1 mM sodium pyruvate, 10 mM HEPES, penicillin-streptomycin; or • b. The same medium described above with one amino acid or amino acid combination at various concentrations
On day 2, cells were treated with the same mediums described above supplemented with recombinant human interleukin-4 (IL-4; Peprotech). Control wells were treated with tofacitinib (Tocris) and IL-4, PBS with IL-4, or phosphate buffered saline (PBS) alone.
On day 3, the supernatant was collected and immediately frozen in −80° C. freezer. Cells were washed once with DPBS and viability was assessed using the WST-8 Cell Proliferation Cytotoxicity Assay (Dojindo) according to manufacturer-supplied protocol. Following the assay, cells were washed twice with PBS and fixed with 4% paraformaldehyde. Protein levels in supernatant samples were analyzed by ELISA for CCL18 using commercially available kits (R&D Systems) according to manufacturer-supplied protocols.

CC(=O)N[C@@H](CS)C(=O)O [NAC, N-acetylcysteine]
MCP1 expression relative to Control- Donor 1, Mean (MCP1/CCL2; Conc. 1000 μM): −0.7629
MCP1 expression relative to Control- Donor 2, Mean (MCP1/CCL2; Conc. 1000 μM): 1.602
MCP1 expression relative to Control- Donor 1, Mean (MCP1/CCL2; Conc. 2500 μM): −2.498
MCP1 expression relative to Control- Donor 2, Mean (MCP1/CCL2; Conc. 2500 μM): −4.0591
MCP1 expression relative to Control- Donor 1, Mean (MCP1/CCL2; Conc. 5000 μM): −10.8919
MCP1 expression relative to Control- Donor 2, Mean (MCP1/CCL2; Conc. 5000 μM): −10.5725
MCP1 expression relative to Control- Donor 1, Mean (MCP1/CCL2; Conc. 10000 μM): −17.6065
MCP1 expression relative to Control- Donor 2, Mean (MCP1/CCL2; Conc. 10000 μM): −28.4419
MCP1 expression relative to Control- Donor 1, Mean (MCP1/CCL2; Conc. 5 X): −0.7629
MCP1 expression relative to Control- Donor 1, Mean (MCP1/CCL2; Conc. 10 X): −2.498
MCP1 expression relative to Control- Donor 1, Mean (MCP1/CCL2; Conc. 20 X): −10.8919
MCP1 expression relative to Control- Donor 1, Mean (MCP1/CCL2; Conc. 40 X): −17.6065
MCP1 expression relative to Control- Donor 2, Mean (MCP1/CCL2; Conc. (X) 1000): 1.602
MCP1 expression relative to Control- Donor 2, Mean (MCP1/CCL2; Conc. (X) 2500): −4.0591
MCP1 expression relative to Control- Donor 2, Mean (MCP1/CCL2; Conc. (X) 5000): −10.5725
MCP1 expression relative to Control- Donor 2, Mean (MCP1/CCL2; Conc. (X) 10000): −28.4419
MCP1/CCL2 secretion (baseline subtracted) (MCP1/CCL2; primary human hepatocytes from two healthy donors, FFA 250 uM + TNF-α 1 ng/ml): significantly decrease
Donor 1 CCL18 Measurements Mean (CCL18; Donor 1, Conc. 4 X): 1.831 fold change
Donor 1 CCL18 Measurements Mean (CCL18; Donor 1, Conc. 10 X): 1.979 fold change
Donor 1 CCL18 Measurements Mean (CCL18; Donor 1, Conc. 20 X): 2.206 fold change
Donor 1 CCL18 Measurements Mean (CCL18; Donor 1, Conc. 40 X): 2.464 fold change
Donor 2 CCL18 Measurements Mean (CCL18; Donor 2, Conc. 5 X): 1.326 fold change
Donor 2 CCL18 Measurements Mean (CCL18; Donor 2, Conc. 10 X): 1.293 fold change
Donor 2 CCL18 Measurements Mean (CCL18; Donor 2, Conc. 20 X): 1.169 fold change
Donor 2 CCL18 Measurements Mean (CCL18; Donor 2, Conc. 40 X): 1.517 fold change
CCL18 Measurements: Mean (fold change relative to vehicle control) (CCL18; Conc. 5 X): 1.324 fold change
CCL18 Measurements: Mean (fold change relative to vehicle control) (CCL18; Conc. 10 X): 1.67 fold change
CCL18 Measurements: Mean (fold change relative to vehicle control) (CCL18; Conc. 20 X): 1.812 fold change
CCL18 Measurements: Mean (fold change relative to vehicle control) (CCL18; Conc. 40 X): 1.887 fold change
IL-4 induced CCL18 secretion (fold change relative to vehicle control) (CCL18; Donor 1): significantly increased
IL-4 induced CCL18 secretion (fold change relative to vehicle control) (CCL18; Donor 2): significantly increased
